Legend:
Format in all cases: cell-based
Du145 = test: Test A: Cytostatic Cell Culture Assay (GI50), Du145; conditions: Homo sapiens, DU-145, 120 h; Du145 cells, 5 days, SRB; read-out: G150 Prostate Du145
Text: (§1) Test A: Cytostatic Cell Culture Assay (GI50)
(§2) This assay is based on quantification of cell counts by a calorimetric detection of the cell associated proteins. The assay relies on the ability of sulforhodamine B (SRB) to bind to protein components of cells that have been fixed to tissue-culture plates by trichloroacetic acid (TCA). SRB is a bright-pink aminoxanthene dye with two sulfonic groups that bind to basic amino-acid residues under mild acidic conditions, and dissociate under basic conditions. As the binding of SRB is stoichiometric, the amount of dye extracted from stained cells is directly proportional to the cell mass.
(§3) Cell lines: All cell lines are obtained from ATCC (Manassas, Va.). Cultivation media containing Glutanax, and trypsin are purchased from Invitrogen (Carlsbad, Calif.). Doxorubicin, Clofarabine, TCA and SRB are from Sigma-Aldrich (St. Louis, Mo.). Gemcitabine is obtained from Moravek Biochemicals (Brea, Calif.)
(§4) • 1. Trypsinize the sub-confluent cells, count them, and adjust the cell concentrations according to the cell counts listed in Table 1. • 2. Distribute the cells into the 96-well plates in 150 μL of media. Incubate the plates overnight in humidified CO2 incubator at 37° C. • 3. Fix one plate of each cell line with TCA. Discard the cultivation media from the plates by flicking them gently and add 100 μL cold 10% (vol/vol) TCA to each well. Incubate the plates at 4 degree refrigerator for 1 hour. Discard TCA from the plates by flicking them gently. Rinse plates four times in a washing basin containing tap water. Store the plates at room temperature. These plates represent cell counts on day zero. • 4. Prepare a set of medium solutions containing various concentrations of tested compounds by making 5-fold serial dilutions in 96-well plate. Add 50 μL of the diluted compounds per well. Include controls with untreated cells and cells treated with doxorubicin, clofarabine and gemcitabine. • 5. Incubate the plates for 5 days at 37° C. • 6. Fix the plates with TCA. Discard the cultivation media from the plates by flicking them gently and add 100 μL cold 10% (vol/vol) TCA to each well. Incubate the plates at 4 degree refrigerator for 1 hour. Discard TCA from the plates by flicking them gently. Rinse plates four times in a washing basin containing tap water. • 7. Remove excess water by tapping the plates face down, gently on a paper towel. Allow the plates to air-dry at room temperature. • 8. Add 100 μL of 0.057% SRB solution in 1% (vol/vol) acetic acid to each well of the plates fixed with TCA on day zero and five. Leave at room temperature for 30 minutes. • 9. Flick the plates gently to discard SRB. Rinse the plates four times with 1% (vol/vol) Acetic Acid. • 10. Store the plates at 370 incubator to facilitate faster drying. • 11. Once the plates are completely dry, add 200 μL of 10 mM Tris base solution (pH 10.5) to each well. Leave at room temperature for 30 minutes for SRB to solubilize. • 12. Measure the OD at 500 nm in a microplate reader. • 13. Calculate the percentage of cell-growth inhibition using the next formula: % of control cell growth=100×(ODsample−mean ODday0)/(ODneg control−mean ODday0)
(§5) For GI50 determination, plot a dose-response curves between the compound concentration and percent of growth inhibition. GI50 values can be derived by fitting dose-response curves using sigmoidal dose response equation.

NCIH23 = test: Test A: Cytostatic Cell Culture Assay (GI50), NCIH23; conditions: Homo sapiens, NCI-H23, 120 h; NCIH23 cells, 5 days, SRB; read-out: G150 Lung NCIH23
Text: as §1, §2, §3, §4, §5

PC3 = test: Test A: Cytostatic Cell Culture Assay (GI50), PC3; conditions: Homo sapiens, PC-3, 120 h; PC3 cells, 5 days, SRB; read-out: G150 Prostate PC3
Text: as §1, §2, §3, §4, §5

HCT116 = test: Test A: Cytostatic Cell Culture Assay (GI50), HCT116; conditions: Homo sapiens, HCT-116, 120 h; HCT116 cells, 5 days, SRB; read-out: G150 Colon HCT116
Text: as §1, §2, §3, §4, §5

A549 = test: Test A: Cytostatic Cell Culture Assay (GI50), A549; conditions: Homo sapiens, 120 h; A549 cells, 5 days, SRB; read-out: G150 Lung A549
Text: as §1, §2, §3, §4, §5

HCT15 = test: Test A: Cytostatic Cell Culture Assay (GI50), HCT15; conditions: Homo sapiens, HCT-15, 120 h; HCT15 cells, 5 days, SRB; read-out: G150 Colon HCT15
Text: as §1, §2, §3, §4, §5

Hs578 = test: Test A: Cytostatic Cell Culture Assay (GI50), Hs578; conditions: 120 h; Hs578 cells, 5 days, SRB; read-out: G150 Breast Hs578
Text: as §1, §2, §3, §4, §5

IC50 (Du145) [µM]	IC50 (PC3) [µM]	IC50 (HCT116) [µM]	IC50 (A549) [µM]	IC50 (HCT15) [µM]	Compound	IC50 (NCIH23) [µM]	IC50 (Hs578) [µM]
0.032	0.092	0.216	0.627	0.098	OC[C@H]1O[C@@H](n2ccc3c(-c4ccsc4)ncnc32)[C@H](O)[C@@H]1O [Example 13, 7-(β-D-Ribofuranosyl)-4-(thiophen-3-yl)-7H-pyrrolo[2,3-d]pyrimidine]	4.24	0.711
0.03	0.384	0.5	0.365	0.163	OC[C@H]1O[C@@H](n2ccc3c(-c4cc[nH]c4)ncnc32)[C@H](O)[C@@H]1O [Example 14, 4-(1H-Pyrrol-3-yl)-7-(β-t-ribofuranosyl)-7H-pyrrolo[2,3-d]pyrimidine]	2.32	0.442
0.409	0.56	7.31	3.25	1.06	OC[C@H]1O[C@@H](n2ccc3c(-c4ccn[nH]4)ncnc32)[C@H](O)[C@@H]1O [Example 16]	3.23	3.94
0.075	0.427	5.69	6.23	0.674	OC[C@H]1O[C@@H](n2ccc3c(-c4cn[nH]c4)ncnc32)[C@H](O)[C@@H]1O [Example 17, 4-(1H-Pyrazol-4-yl)-7-(β-D-ribofuranosyl)-7H-pyrrolo[2,3-d]pyrimidine]	5.23	3.06
0.009	0.176	0.453	0.195	0.111	OC[C@H]1O[C@@H](n2cc(F)c3c(-c4ccc[nH]4)ncnc32)[C@H](O)[C@@H]1O [Example 22]	2.61	0.315
0.005	0.087	0.018	0.06	0.039	OC[C@H]1O[C@@H](n2cc(F)c3c(-c4ccoc4)ncnc32)[C@H](O)[C@@H]1O [Example 23, 5-Fluoro-4-(furan-3-yl)-7-(β-D-ribofuranosyl)-7H-pyrrolo[2,3-d]pyrimidine]	4.64	0.177
0.066	0.105	0.145	0.379	0.179	OC[C@H]1O[C@@H](n2cc(F)c3c(-c4ccsc4)ncnc32)[C@H](O)[C@@H]1O [Example 24, 5-Fluoro-7-(β-D-ribofuranosyl)-4-(thiophen-3-yl)-7H-pyrrolo[2,3-d]pyrimidine]	2.95	0.813
0.024	0.175	1.27	0.902	0.361	OC[C@H]1O[C@@H](n2cc(F)c3c(-c4nccs4)ncnc32)[C@H](O)[C@@H]1O [Example 25, 5-Fluoro-7-(β-D-ribofuranosyl)-4-(thiazol-2-yl)-7H-pyrrolo[2,3-d]pyrimidine]	4.98	0.566
0.887	2.11	> 20	> 20	3.59	OC[C@H]1O[C@@H](n2cc(F)c3c(-c4c[nH]cn4)ncnc32)[C@H](O)[C@@H]1O [Example 26, 5-Fluoro-4-(1H-imidazol-4-yl)-7-(β-D-ribofuranosyl)-7H-pyrrolo[2,3-d]pyrimidine]	7.62	2.11
0.01	0.06	0.255	0.126	0.065	OC[C@H]1O[C@@H](n2cc(F)c3c(-c4cc[nH]c4)ncnc32)[C@H](O)[C@@H]1O [Example 27, 5-Fluoro-7-(β-D-ribofuranosyl)-4-(pyrrol-3-yl)-7H-pyrrolo[2,3-d]pyrimidine]	1.6	0.356
0.138	0.263	1.42	2.47	0.29	OC[C@H]1O[C@@H](n2cc(Cl)c3c(-c4ccccc4)ncnc32)[C@H](O)[C@@H]1O [Example 28, 5-Chloro-4-phenyl-7-(β-D-ribofuranosyl)-7H-pyrrolo[2,3-d]pyrimidine]	5.02	13.2
10	> 20	> 20	15.2	8.15	OC[C@H]1O[C@@H](n2cc(Cl)c3c(-c4ccco4)ncnc32)[C@H](O)[C@@H]1O [Example 29, 5-Chloro-4-(furan-2-yl)-7-(β-D-ribofuranosyl)-7H-pyrrolo[2,3-d]pyrimidine]	13.2	> 20
0.013	0.035	0.275	0.375	0.081	OC[C@H]1O[C@@H](n2cc(Cl)c3c(-c4cccs4)ncnc32)[C@H](O)[C@@H]1O [Example 30, 5-Chloro-7-(β-D-ribofuranosyl)-4-(thiophen-2-yl)-7H-pyrrolo[2,3-d]pyrimidine]	2.02	1.64
0.054	1.2	1.96	1.05	0.632	OC[C@H]1O[C@@H](n2cc(Cl)c3c(-c4ccoc4)ncnc32)[C@H](O)[C@@H]1O [Example 31, 5-Chloro-4-(furan-3-yl)-7-(β-D-ribofuranosyl)-7H-pyrrolo[2,3-d]pyrimidine]	5.26	1.58
0.018	0.118	0.101	0.378	0.148	OC[C@H]1O[C@@H](n2cc(Cl)c3c(-c4ccsc4)ncnc32)[C@H](O)[C@@H]1O [Example 32, 5-Chloro-7-(β-D-ribofuranosyl)-4-(thiophen-3-yl)-7H-pyrrolo[2,3-d]pyrimidine]	4.54	0.109

Compound	IC50 (Du145) [µM]	IC50 (PC3) [µM]	IC50 (HCT116) [µM]	IC50 (A549) [µM]	IC50 (HCT15) [µM]	IC50 (NCIH23) [µM]	IC50 (Hs578) [µM]
OC[C@H]1O[C@@H](n2ccc3c(-c4ccc[se]4)ncnc32)[C@H](O)[C@@H]1O [Example 15, 7-(O-D-Ribofuranosyl)-4-(selenophen-2-yl)-7H-pyrrolo[2,3-d]pyrimidine]	0.028	0.012	0.342	0.23	0.005	2.52	0.29

Reference: patent publication US8093226B2, “Cytostatic 7-deazapurine nucleosides” (Institute of Organic Chemistry and Biochemistry of the …, priority 2008, dated 2012)
